Numbers after ± are expanded uncertainties.
Columns and labels:
[1] = Molar enthalpy of transition or fusion; settings: DSC
[2] = DTA

Molar enthalpy of transition or fusion ([1]; Crystal 1)	Molar enthalpy of transition or fusion ([1]; Crystal 2)	Molar enthalpy of transition or fusion ([1]; Smectic liquid crystal)	Triple point temperature ([2]; Crystal 1)	Triple point temperature ([2]; Crystal 2)	Triple point temperature ([2]; Smectic liquid crystal)	SMILES
1.1 ± 0.129 kcal/mol	1.49 ± 0.134 kcal/mol	0.32 ± 0.124 kcal/mol	406.85 ± 10 K	380.45 ± 10 K	459.05 ± 0.5 K	CCCCCC(=O)[O-].CCCCCC(=O)[O-].CCCCCC(=O)[O-].[La+3] [lanthanum(III) hexanoate]
1.69 ± 0.136 kcal/mol	–	0.717 ± 0.127 kcal/mol	410.95 ± 10 K	366.15 ± 10 K	451.65 ± 10 K	CCCCC(=O)[O-].CCCCC(=O)[O-].CCCCC(=O)[O-].[La+3] [lanthanum(III) pentanoate]

Reference: the NIST ThermoML archive (doi:10.1016/j.tca.2015.05.002)
